Measured values reported in US20250145637A1, “SULFONAMIDE DERIVATIVE, PREPARATION METHOD THEREFOR AND MEDICAL USE THEREOF” (Jiangsu Hengrui Pharmaceuticals Co. Ltd., priority 2021, published 2025).

Assays:
human KAT6B = human KAT6B (Homo sapiens (Human), UniProt Q8WYB5); assay: KAT6B enzyme activity assay (AlphaScreen method); assay type: biochemical; conditions: inhibition of the enzyme human KAT6B
Excerpt: Test Example 2: KAT6B Enzyme Activity Assay (AlphaScreen Method)
I. Reagents and Instrument
• 1. KAT6B (718-1008) (ActiveMotif, 81224) • 2. Bovine serum albumin (Sangon, A500023-0100) • 3. 2 M Tris-HCl solution, pH 7.8, sterile (Sangon, B548140-0500) • 4. EDTA (0.5 M), pH 8. 0, RNase-free (Thermofisher, AiM9260G) • 5. Tween-20 (Sangon, A100777-0500) • 6. DTT, 1 M (Invitrogen, P2325) • 7. Acetyl coenzyme A (Ac-CoA, CAYMAN, Cat. No. 16160) • 8. Recombinant histone H3.1 biotinylated (human) (Active Motif 31696) • 9. 384-well plate, light gray (Perkin Elmer, Cat. No. 6007290) • 10. Anacardic acid (MCE, Cat. No. HY—N2020) • 11. AlphaScreen streptavidin donor beads, 5 mg (PerkinElmer, 6760002) • 12. AlphaScreen protein A acceptor beads, 5 mg (PerkinElmer, 6760137M) • 13. Acetylated-lysine antibody #9441 (CST 9441S) • 14. DMSO (Tansoole, G7592B) • 15. PHERA star microplate reader (BMG labtech)
a. 1× buffer 2: 50 mM Tris-HCl, pH 7.8; 0.1 mM EDTA; 0.01% v/v tween-20; 1 mM DTT; 0.01% m/v bovine serum albumin.
b. KAT6B enzyme solution: 3 nM (final concentration), prepared in buffer 2.
c. Mixed substrate of Ac-CoA and H3: a mixed substrate of 30 nM (final concentration) Ac-CoA and 30 nM (final concentration) H3, prepared in buffer 2.
d. Compounds: initial concentration of 10 mM, 4-fold dilution, 10 gradient concentrations. All compound concentrations were diluted 2500-fold with buffer 2 for later use.
e. Assay reagent: 8 ng/μL (final concentration) AlphaScreen protein A acceptor beads, 8 ng/μL AlphaScreen streptavidin donor beads, 1:1000 diluted acetylated-lysine antibody, and 100 μM anacardic acid; prepared in buffer 2.
2. Experimental Procedure
a. The prepared compound solutions were added to a 384-well plate at 2 μL/well, and 2 μL of buffer 2 (containing 0.04% DMSO) was added to each Min well and each Max well as controls. The plate was centrifuged.
b. The prepared enzyme solution was added at 2 μL/well, and 2 μL of buffer 2 was added to each Min well. The plate was centrifuged, shaken for 2 min, and incubated at room temperature for 10 min.
c. The mixed substrate of Ac-CoA and H3 was added at 4 μL/well, and the plate was centrifuged, shaken for 2 min, and incubated at room temperature for 120 min.
d. The assay reagent was added at 4 μL/well, and the plate was centrifuged, shaken for 2 min, and incubated in the dark at room temperature for 120 min.
e. Plate reading was performed on the microplate reader, and AlphaScreen counts were recorded.
f. Dose-response curves were plotted using log(inhibitor) vs. response of the graphpad prism software, with the abscissa representing the logarithm of the compound concentration and the ordinate representing the calculated enzyme activity inhibition rate, and IC50 values were calculated.

ZR-75-1 = ZR-75-1 proliferation assay (CellTiter-Glo, day 14); assay type: cell-based; conditions: Homo sapiens, 336 h, CTG assay day 14; for IC50: ZR-75-1 proliferation; for Emax: inhibition of ZR-75-1 proliferation, read-out: Maximum inhibition rate/Imax %
Excerpt: Test Example 4: ZR-75-1 Proliferation Assay
I. Reagents and Instruments
• 1. ZR-75-1 (ATCC CRL1500) • 2. 1640 medium (Gibco, 22400-089) • 3. 0.25% trypsin-EDTA (1×) (Gibco, 25200-072) • 4. Penicillin-streptomycin (Gibco, 15140-122) • 5. DPBS (1×) (Gibco, 14190-144) • 6. FBS (Gibco, 10091148) • 7. Assay plate, 96-well, black with clear bottom (Corning, 3603) • 8. 96-well non-treated round-bottom plate (JET BIOFIL, TCP-002-096) • 9. CellTiter-Glo buffer (Promega, G756B) • 10. CellTiter-Glo substrate (Promega, G755B) • 11. Automatic cell counter (Countstar, IC1000) • 12. Thermostatic incubator (Thermo, 1160) • 13. PHERAstar FS (BMG labtech, PHERAstar FS)
a. The state of cells was observed under a microscope to make sure that the cell confluence was about 90%.
b. The cell supernatant was discarded. The cells were rinsed with DPBS once, and the DPBS was removed. The cells were digested with a proper amount of trypsin and left to stand at 37° C. for 5 min.
c. The digestion was stopped with an equal volume of 1640 medium containing 10% FBS, and the cell suspension was collected and centrifuged at 300 g for 3 min. The cells were suspended in a proper amount of fresh medium.
d. The resulting cell suspension was collected and cell counting was performed.
e. The cell suspension was diluted to 5×10^4/mL, 50 μL/well with 1640 medium containing 10% FBS. Each well contained 2500 ZR-75-1 cells.
f. The cell culture plates were incubated overnight in a 37° C., 5% carbon dioxide incubator.
2. Compound Addition (Day 1)
a. Each compound was serially diluted in DMSO to 9 concentration points (initial concentration of 100 μM, 3-fold dilution; the highest concentration of each compound may be adjusted depending on its IC50). For example, in a 96-well non-treated round-bottom plate, 3 μL of compound was serially diluted in 6 μL of DMSO.
b. Each concentration point of each compound was diluted 500-fold in the corresponding volume of 1640 medium.
c. 50 μL of diluted compound solution was added to the cell supernatant (50 μL/well) in each cell plate.
d. After the addition, the cell plates were incubated in a 37° C., 5% carbon dioxide incubator.
3. The Cells were Re-Digested and Plated, and the Compounds were Added (Day 7).
a. Six days after the addition, the compound-containing medium was discarded. Then the cells were rinsed with DPBS (150 μL/well), and the DPBS was immediately pipetted off.
b. The cells were digested with 50 μL of trypsin and left to stand at 37° C. for 3 min, and then the digestion was stopped with 1640 medium containing 10% FBS (150 μL/well).
c. The cells were well mixed using a pipette and re-plated at a ratio of 1:8; that is, 25 μL of cell suspension was pipetted into a new 96-well plate (25 μL of 1640 medium containing 10% FBS had been added to the new plate in advance).
d. Compound solution preparation and addition (50 μL/well) were performed according to steps a to c in 2.
e. After the addition, the cell plates were incubated in a 37° C., 5% carbon dioxide incubator.
a. CellTiter-Glo buffer and lyophilized CellTiter-Glo substrate were equilibrated to room temperature before use and were well mixed to prepare a 100-mL CellTiter-Glo reagent (or a prepared CellTiter-Glo reagent was removed from a −20° C. freezer and equilibrated to room temperature).
b. The plates to be tested were removed from the incubator and equilibrated to room temperature, and the CellTiter-Glo reagent was added at 50 μL/well.
c. The plates were shaken for 2 min so that the cells were completely lysed.
d. After the plates were left to stand at room temperature for 28 min and signals were stable, the plates were tested on PHERAstar FS.

Chain of human KAT6B (Q8WYB5 718-1008): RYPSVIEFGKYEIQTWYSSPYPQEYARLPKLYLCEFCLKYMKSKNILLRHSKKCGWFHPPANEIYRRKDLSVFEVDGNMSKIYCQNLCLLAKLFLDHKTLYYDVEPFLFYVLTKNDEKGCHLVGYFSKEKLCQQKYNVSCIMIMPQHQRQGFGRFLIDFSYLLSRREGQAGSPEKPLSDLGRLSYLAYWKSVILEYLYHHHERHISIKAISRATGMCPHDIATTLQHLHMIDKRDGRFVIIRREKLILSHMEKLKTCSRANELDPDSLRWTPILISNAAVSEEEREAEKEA

COc1cccc(OC)c1S(=O)(=O)Nc1noc2cc(Cn3cccn3)c3c(c12)OCC3 [Compound 1, N-(4-((1H-pyrazol-1-yl)methyl)-2,3-dihydrobenzofuro[7,6-d]isoxazol-8-yl)-2,6-dimethoxybenzenesulfonamide]
IC50 (human KAT6B): 1.1 nM
IC50 (ZR-75-1): 1.4 nM
Emax (ZR-75-1): 96%

COc1cccc(OC)c1S(=O)(=O)Nc1noc2cc(Cn3cccn3)c3c(c12)OCCC3 [Compound 2, N-(5-((1H-pyrazol-1-yl)methyl)-3,4-dihydro-2H-chromeno[8,7-d]isoxazol-9-yl)-2,6-dimethoxybenzenesulfonamide]
IC50 (human KAT6B): 0.7 nM
IC50 (ZR-75-1): 0.4 nM
Emax (ZR-75-1): 96%

COc1ccccc1S(=O)(=O)Nc1noc2cc(Cn3cccn3)c3c(c12)OCCC3 [Compound 3, N-(5-((1H-pyrazol-1-yl)methyl)-3,4-dihydro-2H-chromeno[8,7-d]isoxazol-9-yl)-2-methoxybenzenesulfonamide]
IC50 (human KAT6B): 1.4 nM
IC50 (ZR-75-1): 1.9 nM
Emax (ZR-75-1): 95%

COc1cccc(OC)c1S(=O)(=O)Nc1noc2cc(Cn3cccn3)c3c(c12)OC(F)(F)O3 [Compound 5, N-(4-((1H-pyrazol-1-yl)methyl)-2,2-difluoro-[1,3]dioxolo[4′,5′:5,6]benzo[1,2-d]isoxazol-8-yl)-2,6-dimethoxybenzenesulfonamide]
IC50 (human KAT6B): 1.5 nM
IC50 (ZR-75-1): 0.9 nM
Emax (ZR-75-1): 98%

CCOc1cc(C)ccc1S(=O)(=O)Nc1noc2cc(Cn3cccn3)c3c(c12)OCCC3 [Compound 7, N-(5-((1H-pyrazol-1-yl)methyl)-3,4-dihydro-2H-chromeno[8,7-d]isoxazol-9-yl)-2-ethoxy-4-methylbenzenesulfonamide]
IC50 (ZR-75-1): 1.6 nM
Emax (ZR-75-1): 95.6%

Cc1ccc(S(=O)(=O)Nc2noc3cc(Cn4cccn4)c4c(c23)OCCC4)c(OCC(F)(F)F)c1 [Compound 8, N-(5-((1H-pyrazol-1-yl)methyl)-3,4-dihydro-2H-chromeno[8,7-d]isoxazol-9-yl)-4-methyl-2-(2,2,2-trifluoroethoxy)benzenesulfonamide]
IC50 (ZR-75-1): 2.6 nM
Emax (ZR-75-1): 96.3%

COc1ccc(F)cc1S(=O)(=O)Nc1noc2cc(Cn3cccn3)c3c(c12)OCCC3 [Compound 9, N-(5-((1H-pyrazol-1-yl)methyl)-3,4-dihydro-2H-chromeno[8,7-d]isoxazol-9-yl)-5-fluoro-2-methoxybenzenesulfonamide]
IC50 (ZR-75-1): 1.6 nM
Emax (ZR-75-1): 96.2%

COc1cccc(OC(F)(F)F)c1S(=O)(=O)Nc1noc2cc(Cn3cccn3)c3c(c12)OCCC3 [Compound 10, N-(5-((1H-pyrazol-1-yl)methyl)-3,4-dihydro-2H-chromeno[8,7-d]isoxazol-9-yl)-2-methoxy-6-(trifluoromethoxy)benzenesulfonamide]
IC50 (ZR-75-1): 2.95 nM
Emax (ZR-75-1): 94.1%

COc1ccccc1S(=O)(=O)Nc1noc2cc(Cn3cccn3)c3c(c12)OCC3 [Compound 20, N-(4-((1H-pyrazol-1-yl)methyl)-2,3-dihydrobenzofuro[7,6-d]isoxazol-8-yl)-2-methoxybenzenesulfonamide]
IC50 (ZR-75-1): 8.6 nM
Emax (ZR-75-1): 94.9%

COc1cccc(OC(F)(F)F)c1S(=O)(=O)Nc1noc2cc(Cn3cccn3)c3c(c12)OCC3 [Compound 23, N-(4-((1H-pyrazol-1-yl)methyl)-2,3-dihydrobenzofuro[7,6-d]isoxazol-8-yl)-2-methoxy-6-(trifluoromethoxy)benzenesulfonamide]
IC50 (ZR-75-1): 10.9 nM
Emax (ZR-75-1): 90.8%
